Results: ChEMBL document CHEMBL1152036, “Acyclic nucleoside triphosphate analogs as terminators in biocatalytic DNA replication” (Bioorg Med Chem Lett, 1997)

How the values were obtained:
[1] = tested on: HIV-1 reverse transcriptase (Human immunodeficiency virus 1); assay: The compound was evaluated as substrate for DNA replicating enzyme, HIV-1 RT at a concentration of 1 mM; Termination
[2] = tested on: Nucleic Acid; assay: The compound was evaluated as substrate for DNA replicating enzyme, AmpliTaq DNA polymerase; No incorporation; assay type: nucleic-acid assay
[3] = tested on: Nucleic Acid; assay: The compound was evaluated as substrate for DNA replicating enzyme, AmpliTaq FS DNA polymerase at a concentration of 1 mM; Termination; assay type: nucleic-acid assay
[4] = tested on: Nucleic Acid; assay: The compound was evaluated as substrate for DNA replicating enzyme, rTth DNA polymerase; No incorporation; assay type: nucleic-acid assay
[5] = tested on: Nucleic Acid; assay: The compound was evaluated as substrate for DNA replicating enzyme, Bst DNA polymerase; No incorporation; assay type: nucleic-acid assay
[6] = target: DNA polymerase I, thermostable (Thermus aquaticus) (UniProt P19821); assay: The compound was evaluated as substrate for DNA replicating enzyme, Taq DNA polymerase at a concentration of 1 mM; Termination
[7] = tested on: HIV-1 reverse transcriptase (Human immunodeficiency virus 1); assay: The compound was evaluated as substrate for DNA replicating enzyme, HIV-1 RT at a concentration of 1 mM; Not assayed
[8] = target: DNA polymerase I, thermostable (Thermus aquaticus) (UniProt P19821); assay: The compound was evaluated as substrate for DNA replicating enzyme, Taq DNA polymerase at a concentration of 100 uM; Termination
[9] = tested on: Nucleic Acid; assay: The compound was evaluated as substrate for DNA replicating enzyme, AmpliTaq FS DNA polymerase at a concentration of 100 uM; Termination; assay type: nucleic-acid assay

Sequence of DNA polymerase I, thermostable (Thermus aquaticus) (P19821 whole entry): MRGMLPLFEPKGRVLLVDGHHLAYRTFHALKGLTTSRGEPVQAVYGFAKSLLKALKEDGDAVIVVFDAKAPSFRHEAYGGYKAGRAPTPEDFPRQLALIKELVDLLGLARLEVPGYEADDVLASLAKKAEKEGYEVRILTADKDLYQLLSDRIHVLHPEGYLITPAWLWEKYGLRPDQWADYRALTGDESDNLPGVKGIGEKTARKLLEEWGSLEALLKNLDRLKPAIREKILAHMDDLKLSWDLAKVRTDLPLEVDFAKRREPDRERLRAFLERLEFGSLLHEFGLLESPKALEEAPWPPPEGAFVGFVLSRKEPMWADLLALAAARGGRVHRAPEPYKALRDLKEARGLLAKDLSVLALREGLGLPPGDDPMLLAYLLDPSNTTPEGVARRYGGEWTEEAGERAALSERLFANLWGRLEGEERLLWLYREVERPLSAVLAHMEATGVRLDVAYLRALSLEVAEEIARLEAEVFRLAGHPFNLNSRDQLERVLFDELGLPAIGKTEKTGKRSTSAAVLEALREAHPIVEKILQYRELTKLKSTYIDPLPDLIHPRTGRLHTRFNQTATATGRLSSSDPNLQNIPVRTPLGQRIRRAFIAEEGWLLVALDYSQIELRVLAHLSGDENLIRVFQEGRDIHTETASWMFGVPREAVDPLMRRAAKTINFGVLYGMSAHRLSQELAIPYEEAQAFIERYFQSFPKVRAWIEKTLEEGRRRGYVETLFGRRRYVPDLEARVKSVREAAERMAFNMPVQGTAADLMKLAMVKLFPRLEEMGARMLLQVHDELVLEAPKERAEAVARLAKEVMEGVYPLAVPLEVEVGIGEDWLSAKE

Activity [1] | Activity [2] | Activity [3] | Activity [4] | Activity [5] | Activity [6] | Activity [7] | Activity [8] | Activity [9] | SMILES
No incorporation | No incorporation | No incorporation | No incorporation | No incorporation | No incorporation |  |  |  | Cc1cn(CC(=O)N(C)CCOP(=O)(O)OP(=O)(O)OP(=O)(O)O)c(=O)[nH]c1=O
 |  |  | No incorporation | No incorporation |  | No incorporation | No incorporation | No incorporation | CN(CCOP(=O)(O)OP(=O)(O)OP(=O)(O)O)C(=O)Cn1cnc2c(N)ncnc21
